Measurements from patent US9309236B2, “PI-kinase inhibitors with broad spectrum anti-infective activity” (The Board of Trustees of the Leland Stanford Junior …, priority 2011, dated 2016).

Tested on: HCV genotype 2a
Assay: microbe, parasite or virus in culture
Assay type: cell-based
Conditions: HCV genotype 2a in Huh7.5 cells, luciferase reporter assay; read-out: 2a EC50
Protocol: Anti-HCV assays are performed as described by Cho et al. “Identification of a class of HCV inhibitors directed against the nonstructural protein NS4B.” Sci. Transl.
(§1) The compounds of Table 1 were prepared according to the methods described above.

Molecule `COc1ccc(-c2sc(NC(=O)CC3CCCCC3)nc2C)cc1S(=O)(=O)Nc1cccc(O)c1` [AB4114] has an EC50 of 200 to 1000 nM.

Same assay, conditions: Hepatitis C virus, Huh7.5, HCV genotype 2a in Huh7.5 cells, luciferase reporter assay; read-out: 2a EC50

First: COc1ccc(-c2sc(NC(=O)CC3CCCCC3)nc2C)cc1S(=O)(=O)Nc1ccc(O)cc1 [AB3680]
Second: COc1ccc(-c2sc(NC(=O)CC3CCCCC3)nc2C)cc1S(=O)(=O)Nc1cccc(O)c1 [AB3826]
The EC50 of the first is higher: > 1000 nM for the first, < 200 nM for the second. The second is the more potent here.

`COc1ccc(-c2sc(NC(=O)CCC3CCCC3)nc2C)cc1S(=O)(=O)Nc1cccc(O)c1` [AB3837] and `COc1ccc(-c2sc(NC(=O)CC3CCCC3)nc2C)cc1S(=O)(=O)Nc1cccc(O)c1` [AB4109] fall in the same range of EC50: 200 to 1000 nM for the first, 200 to 1000 nM for the second.

`COc1ccc(-c2sc(NC(=O)C3CCCC3)nc2C)cc1S(=O)(=O)Nc1cnc(OC)c(C)c1` [AB3864] and `COc1ccc(-c2sc(NC3CCCCC3)nc2C)cc1S(=O)(=O)Nc1cnc(OC)c(C)c1` [AB3948] fall in the same range of EC50: 200 to 1000 nM for the first, 200 to 1000 nM for the second.

`COc1ccc(-c2sc(NC3CCCCC3)nc2C)cc1S(=O)(=O)Nc1cnc(Cl)c(C)c1` [AB3946] and `COc1ccc(-c2sc(NC3CCCCCC3)nc2C)cc1S(=O)(=O)Nc1cnc(Cl)c(C)c1` [AB4141] fall in the same range of EC50: 200 to 1000 nM for the first, 200 to 1000 nM for the second.

`COc1cc(C)c(NS(=O)(=O)c2cc(-c3sc(NC4CCCCC4)nc3C)ccc2OC)cn1` [AB3950] and `COc1ccc(-c2sc(NC3CCCCC3)nc2C)cc1S(=O)(=O)Nc1cnc(F)cc1C` [AB4052] cannot be ordered by EC50: < 200 nM for the first, < 200 nM for the second.

`COc1ccc(NS(=O)(=O)c2cc(-c3sc(NC4CCCCC4)nc3C)ccc2OC)cn1` [AB3957] and `COc1ccc(-c2sc(NC3CCCCC3)nc2C)cc1S(=O)(=O)Nc1ccc(Cl)nc1` [AB4024] fall in the same range of EC50: 200 to 1000 nM for the first, 200 to 1000 nM for the second.

`COc1ccc(-c2sc(NC(C)C)nc2C)cc1S(=O)(=O)Nc1cnc(Cl)c(C)c1` [AB3977] and `COc1cc(C)c(NS(=O)(=O)c2cc(-c3sc(NC(C)C)nc3C)ccc2OC)cn1` [AB3979] fall in the same range of EC50: 200 to 1000 nM for the first, 200 to 1000 nM for the second.

`COc1ccccc1NS(=O)(=O)c1cc(-c2sc(NC3CCCCC3)nc2C)ccc1OC` [AB4025] and `COc1ccccc1NS(=O)(=O)c1cc(-c2sc(NC(=O)C3CCCC3)nc2C)ccc1OC` [AB4051] fall in the same range of EC50: 200 to 1000 nM for the first, 200 to 1000 nM for the second.

Compared with `COc1ccc(-c2sc(NC(=O)C3CCCC3)nc2C)cc1S(=O)(=O)Nc1ccc(Cl)nc1` [AB4050], `COc1ccc(-c2sc(NC(=O)C3CCCC3)nc2C)cc1S(=O)(=O)Nc1ccc(Cl)cc1` [AB4185] is higher in EC50: 200 to 1000 nM for the first, > 1000 nM for the second. The first is the more potent here.

`COc1ccc(NS(=O)(=O)c2cc(-c3sc(NC4CCCCC4)nc3C)ccc2OC)c(OC)n1` [AB4053] and `COc1ccc(NS(=O)(=O)c2cc(-c3sc(NC(=O)C4CCCC4)nc3C)ccc2OC)c(OC)n1` [AB4054] fall in the same range of EC50: 200 to 1000 nM for the first, 200 to 1000 nM for the second.

`COc1ccc(-c2sc(NC3CCCCC3)nc2C)cc1S(=O)(=O)Nc1ccc(C)cc1` [AB4106] and `COc1ccc(-c2sc(NC3CCCCCC3)nc2C)cc1S(=O)(=O)Nc1cccc(O)c1` [AB4139] fall in the same range of EC50: 200 to 1000 nM for the first, 200 to 1000 nM for the second.

`COc1cc(C)c(NS(=O)(=O)c2cc(-c3sc(NC(=O)CC4CCCC4)nc3C)ccc2OC)cn1` [AB4107] and `COc1cc(C)c(NS(=O)(=O)c2cc(-c3sc(NC(=O)CC4CCCCC4)nc3C)ccc2OC)cn1` [AB4112] fall in the same range of EC50: 200 to 1000 nM for the first, 200 to 1000 nM for the second.

`COc1ccc(-c2sc(NC(=O)CC3CCCC3)nc2C)cc1S(=O)(=O)Nc1cnc(Cl)c(C)c1` [AB4108] and `COc1ccc(-c2sc(NC(=O)CC3CCCCC3)nc2C)cc1S(=O)(=O)Nc1cnc(Cl)c(C)c1` [AB4113] fall in the same range of EC50: 200 to 1000 nM for the first, 200 to 1000 nM for the second.

`COc1ccc(NS(=O)(=O)c2cc(-c3sc(NC(=O)CC4CCCC4)nc3C)ccc2OC)c(C)c1` [AB4110] and `COc1ccc(NS(=O)(=O)c2cc(-c3sc(NC(=O)CC4CCCCC4)nc3C)ccc2OC)c(C)c1` [AB4115] fall in the same range of EC50: 200 to 1000 nM for the first, 200 to 1000 nM for the second.

`COc1ccc(-c2sc(NC(=O)CC3CCCC3)nc2C)cc1S(=O)(=O)Nc1cnc(F)cc1C` [AB4111] and `COc1ccc(-c2sc(NC(=O)CC3CCCCC3)nc2C)cc1S(=O)(=O)Nc1cnc(F)cc1C` [AB4116] fall in the same range of EC50: 200 to 1000 nM for the first, 200 to 1000 nM for the second.

`COc1ccc(NS(=O)(=O)c2cc(-c3sc(NC4CCCCCC4)nc3C)ccc2OC)c(C)c1` [AB4140] and `COc1ccc(-c2sc(NC3CCCCCC3)nc2C)cc1S(=O)(=O)Nc1ccc(Cl)cc1F` [AB4145] fall in the same range of EC50: 200 to 1000 nM for the first, 200 to 1000 nM for the second.

`COc1ccc(-c2sc(NC(=O)CC3CCCC3)nc2C)cc1S(=O)(=O)Nc1ccc(Cl)cc1F` [AB4171] and `COc1ccc(-c2sc(CC3CCCCC3)nc2C)cc1S(=O)(=O)Nc1ccc(Cl)c(F)c1` [AB4242] fall in the same range of EC50: 200 to 1000 nM for the first, 200 to 1000 nM for the second.

`COc1ccc(-c2sc(NC3CCCCC3)nc2C)cc1S(=O)(=O)NC1CCNCC1` [AB4173] and `COc1ccc(-c2sc(NC3CCCCC3)nc2C)cc1S(=O)(=O)NC1CCCNC1` (centres unmarked) [AB4174] cannot be ordered by EC50: > 1000 nM for the first, > 1000 nM for the second.

`COc1ccc(-c2sc(NC(=O)C3CCCC3)nc2C)cc1S(=O)(=O)NC1CCNCC1` [AB4178] and `COc1ccc(-c2sc(NC(=O)C3CCCC3)nc2C)cc1S(=O)(=O)NC1CCCNC1` (centres unmarked) [AB4179] cannot be ordered by EC50: > 1000 nM for the first, > 1000 nM for the second.

`COc1ccc(-c2sc(NCC3CCCCC3)nc2C)cc1S(=O)(=O)Nc1cnc(F)cc1C` [AB4225] and `COc1ccc(-c2sc(NCC3CCCCC3)nc2C)cc1S(=O)(=O)Nc1cnc(Cl)c(C)c1` [AB4226] fall in the same range of EC50: 200 to 1000 nM for the first, 200 to 1000 nM for the second.

`COc1ccc(-c2sc(NCC3CCCCC3)nc2C)cc1S(=O)(=O)NC1CCCNC1` (centres unmarked) [AB4227] and `COc1ccc(-c2sc(NCC3CCCCC3)nc2C)cc1S(=O)(=O)NC1CCNCC1` [AB4237] cannot be ordered by EC50: > 1000 nM for the first, > 1000 nM for the second.

`COc1ccc(-c2sc(NCC3CCCCC3)nc2C)cc1S(=O)(=O)NCC1CCNCC1` [AB4228] and `COc1ccc(-c2sc(CC3CCCCC3)nc2C)cc1S(=O)(=O)NC1CCNCC1` [AB4240] cannot be ordered by EC50: > 1000 nM for the first, > 1000 nM for the second.

First: COc1ccc(-c2sc(NCC3CCCCC3)nc2C)cc1S(=O)(=O)Nc1cnc(Cl)c(F)c1 [AB4229]
Second: COc1ccc(-c2sc(CC3CCCCC3)nc2C)cc1S(=O)(=O)Nc1cnc(Cl)c(C)c1 [AB4239]
The EC50 of the first is higher: > 1000 nM for the first, 200 to 1000 nM for the second.

First: COc1ccc(-c2sc(CC3CCCCC3)nc2C)cc1S(=O)(=O)NC1CCCNC1 (centres unmarked) [AB4241]
Second: COc1ccc(-c2sc(CC3CCCCC3)nc2C)cc1S(=O)(=O)Nc1ccc(Cl)c(C)c1 [AB4243]
The EC50 of the first is higher: > 1000 nM for the first, 200 to 1000 nM for the second. The second is the more potent here.

Tested on: not listed separately
Assay: Cell toxicity (CC50), Table 3
Assay type: cell-based
Conditions: human, Huh7.5 cells
Protocol: as §1

In order of falling CC50:
1. COc1ccc(-c2sc(NC3CCCCC3)nc2C)cc1S(=O)(=O)Nc1ccc(C)cc1 [AB4106]  58500 nM
2. COc1ccc(-c2sc(NC(=O)CC3CCCCC3)nc2C)cc1S(=O)(=O)Nc1ccc(O)cc1 [AB3680]  54000 nM
3. COc1ccc(-c2sc(NC(=O)CCC3CCCC3)nc2C)cc1S(=O)(=O)Nc1cccc(O)c1 [AB3837]  22000 nM
4. COc1ccc(-c2sc(NC(=O)CC3CCCC3)nc2C)cc1S(=O)(=O)Nc1cccc(O)c1 [AB4109]  20700 nM
5. COc1ccccc1NS(=O)(=O)c1cc(-c2sc(NC3CCCCC3)nc2C)ccc1OC [AB4025]  13000 nM
6. COc1cc(C)c(NS(=O)(=O)c2cc(-c3sc(NC4CCCCC4)nc3C)ccc2OC)cn1 [AB3950]  12000 nM
7. COc1ccc(NS(=O)(=O)c2cc(-c3sc(NC4CCCCC4)nc3C)ccc2OC)cn1 [AB3957]  9000 nM
